Data from the NIST ThermoML archive (doi:10.1016/j.tca.2011.11.036).
± gives the expanded uncertainty stated by the source.

Experiment: molar heat capacity at constant pressure; xn = mol fraction of the nth substance listed
Conditions: 101 kPa, Liquid, Small sample (50 mg) DSC

Compound | molar heat capacity at constant pressure (303.15 K, x1 = 0.3333) [J/K/mol] | molar heat capacity at constant pressure (308.15 K, x1 = 0.3333) [J/K/mol] | molar heat capacity at constant pressure (313.15 K, x1 = 0.3333) [J/K/mol] | molar heat capacity at constant pressure (318.15 K, x1 = 0.3333) [J/K/mol] | molar heat capacity at constant pressure (323.15 K, x1 = 0.3333) [J/K/mol] | molar heat capacity at constant pressure (328.15 K, x1 = 0.3333) [J/K/mol] | molar heat capacity at constant pressure (333.15 K, x1 = 0.3333) [J/K/mol] | molar heat capacity at constant pressure (338.15 K, x1 = 0.3333) [J/K/mol] | molar heat capacity at constant pressure (343.15 K, x1 = 0.3333) [J/K/mol] | molar heat capacity at constant pressure (348.15 K, x1 = 0.3333) [J/K/mol] | molar heat capacity at constant pressure (353.15 K, x1 = 0.3333) [J/K/mol] | further results
C[N+](C)(C)CCO.[Cl-] [choline chloride] + OCC(O)CO | 237.7 ± 3.7 | 239.1 ± 3.7 | 240.8 ± 3.7 | 241.9 ± 3.7 | 243.5 ± 3.8 | 244.9 ± 3.8 | 246.9 ± 3.8 | 248.4 ± 3.8 | 250.3 ± 3.9 | 252.1 ± 3.9 | 254.3 ± 3.9 | –
NC(N)=O [urea] + C[N+](C)(C)CCO.[Cl-] | – | – | – | – | – | – | – | – | – | – | – | molar heat capacity at constant pressure (303.15 K, x2 = 0.3333): 181.4 ± 2.8 J/K/mol; molar heat capacity at constant pressure (308.15 K, x2 = 0.3333): 182.2 ± 2.8 J/K/mol; molar heat capacity at constant pressure (313.15 K, x2 = 0.3333): 183.2 ± 2.8 J/K/mol; molar heat capacity at constant pressure (318.15 K, x2 = 0.3333): 183.5 ± 2.8 J/K/mol; molar heat capacity at constant pressure (323.15 K, x2 = 0.3333): 184.5 ± 2.9 J/K/mol; molar heat capacity at constant pressure (328.15 K, x2 = 0.3333): 185.3 ± 2.9 J/K/mol; molar heat capacity at constant pressure (333.15 K, x2 = 0.3333): 186.4 ± 2.9 J/K/mol; molar heat capacity at constant pressure (338.15 K, x2 = 0.3333): 187.4 ± 2.9 J/K/mol; molar heat capacity at constant pressure (343.15 K, x2 = 0.3333): 188.5 ± 3 J/K/mol; molar heat capacity at constant pressure (348.15 K, x2 = 0.3333): 189.5 ± 2.9 J/K/mol; molar heat capacity at constant pressure (353.15 K, x2 = 0.3333): 190.8 ± 3.1 J/K/mol
C[N+](C)(C)CCO.[Cl-] [choline chloride] + OCCO | 190.8 ± 3 | 192.2 ± 3 | 194 ± 3 | 194.9 ± 3 | 196.4 ± 3 | 197.6 ± 3.1 | 199.2 ± 3.1 | 200.6 ± 3.1 | 202.1 ± 3.1 | 203.9 ± 3.2 | 205.6 ± 3.2 | –
